Data: PMC9862037, “Interactions of Mycotoxin Alternariol with Cytochrome P450 Enzymes and OATP Transporters” (Metabolites, 2022)
pIC50: −log10 of the molar value.

Key:
CYP1A2 = target: T1, CYP1A2 (Homo sapiens, UniProt P05177); assay: biochemical
T1 construct: purchased Abcam ab211075
Method: CYP1A2 Inhibitor Assay Kit (Abcam; Cambridge, UK) was applied following the manufacturer’s description, where the inhibitory action of 0.000, 0.001, 0.010, 0.050, 0.10, 0.20, 0.50, 1.25, 3.0, 10, and 25 μM AOH concentrations were tested.
(§1) IC50 values were calculated by sigmoidal fitting (Hill1), using the Origin (version 2018, OriginLab Corporation, Northampton, MA, USA) software.

CYP2C19 = target: T2, CYP2C19 (Homo sapiens, UniProt P33261); assay type: biochemical
T2 construct: purchased Merck; host or cells: yeast (inferred from the description of the CYPnull control, 'processed identically')
T2 sequence (P33261 whole entry): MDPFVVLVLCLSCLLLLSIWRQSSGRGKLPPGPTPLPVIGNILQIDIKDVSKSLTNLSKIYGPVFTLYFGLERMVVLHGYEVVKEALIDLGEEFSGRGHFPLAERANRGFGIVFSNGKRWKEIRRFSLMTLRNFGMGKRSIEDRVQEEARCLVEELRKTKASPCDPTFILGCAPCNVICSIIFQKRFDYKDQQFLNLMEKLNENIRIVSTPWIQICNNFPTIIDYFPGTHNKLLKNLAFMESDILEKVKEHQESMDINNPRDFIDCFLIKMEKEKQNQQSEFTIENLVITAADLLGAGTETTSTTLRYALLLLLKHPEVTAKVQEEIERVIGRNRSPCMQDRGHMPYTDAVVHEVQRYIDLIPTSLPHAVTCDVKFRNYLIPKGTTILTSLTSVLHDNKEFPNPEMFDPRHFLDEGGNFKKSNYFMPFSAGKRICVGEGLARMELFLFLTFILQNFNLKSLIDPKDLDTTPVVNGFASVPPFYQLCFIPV
Method: (§2) The potential inhibitory effects of AOH on CYP2C9, 2C19, 2D6, and 3A4 enzymes were tested in vitro employing CypExpress human kits, using the substrates recommended by the U.S. Food and Drug Administration (FDA; https://www.fda.gov/drugs/drug-interactions-labeling/drug-development-and-drug-interactions-table-substrates-inhibitors-and-inducers; accessed on 19 December 2022) (diclofenac, S-mephenytoin, dextromethorphan, and testosterone, respectively). The impacts of increasing concentrations of AOH (0.00, 0.05, 0.50, 2.0, 5.0, 10, 25, 30, and 50 μM) were examined on diclofenac 4′-hydroxylation (CYP2C9), S-mephenytoin 4-hydroxylation (CYP2C19), dextromethorphan demethylation (CYP2D6), and testosterone 6β-hydroxylation (CYP3A4) as described previously, without modifications. In these assays, the substrates and products were quantified by HPLC-UV [28].
as §1
(§3) After CYP450 incubations, the product formation rate was investigated using an integrated HPLC system (Jasco, Tokyo, Japan) built up from an autosampler (AS-4050), a binary pump (PU-4180), and a UV detector (UV-975). Chromatographic data were evaluated employing ChromNAV2 software (Jasco, Tokyo, Japan). Quantitative determinations of 4′-hydroxydiclofenac and diclofenac (CYP2C9), 4-hydroxymephenytoin and mephenytoin (CYP2C19), dextromethorphan and dextrorphan (CYP2D6), as well as testosterone and 6β-hydroxytestosterone (CYP3A4) were carried out as previously reported, without modifications.

CYP2D6 = target: T3, CYP2D6 (Homo sapiens, UniProt P10635); assay type: biochemical; details: 50 μM AOH
T3 construct: purchased Merck; host or cells: yeast (inferred from the description of the CYPnull control, 'processed identically')
T3 sequence (P10635 whole entry): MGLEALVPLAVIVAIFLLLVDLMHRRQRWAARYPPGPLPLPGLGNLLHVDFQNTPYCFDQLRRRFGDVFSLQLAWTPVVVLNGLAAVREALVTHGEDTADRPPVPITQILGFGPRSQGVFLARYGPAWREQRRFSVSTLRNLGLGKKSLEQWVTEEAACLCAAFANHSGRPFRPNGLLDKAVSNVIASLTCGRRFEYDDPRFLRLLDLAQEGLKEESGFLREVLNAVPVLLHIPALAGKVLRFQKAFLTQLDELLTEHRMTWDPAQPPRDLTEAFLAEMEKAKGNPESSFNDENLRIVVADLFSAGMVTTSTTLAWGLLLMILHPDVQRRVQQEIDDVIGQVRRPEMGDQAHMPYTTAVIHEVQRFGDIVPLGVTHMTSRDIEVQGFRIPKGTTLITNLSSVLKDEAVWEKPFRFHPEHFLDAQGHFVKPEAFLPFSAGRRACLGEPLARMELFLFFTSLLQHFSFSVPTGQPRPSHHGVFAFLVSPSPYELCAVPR
Method: as §2, §1, §3

CYP3A4 = target: T4, CYP3A4 (Homo sapiens, UniProt P08684); assay type: biochemical; details: plateau above 10 μM AOH
T4 construct: purchased Merck; host or cells: yeast (inferred from the description of the CYPnull control, 'processed identically')
T4 sequence (P08684 whole entry): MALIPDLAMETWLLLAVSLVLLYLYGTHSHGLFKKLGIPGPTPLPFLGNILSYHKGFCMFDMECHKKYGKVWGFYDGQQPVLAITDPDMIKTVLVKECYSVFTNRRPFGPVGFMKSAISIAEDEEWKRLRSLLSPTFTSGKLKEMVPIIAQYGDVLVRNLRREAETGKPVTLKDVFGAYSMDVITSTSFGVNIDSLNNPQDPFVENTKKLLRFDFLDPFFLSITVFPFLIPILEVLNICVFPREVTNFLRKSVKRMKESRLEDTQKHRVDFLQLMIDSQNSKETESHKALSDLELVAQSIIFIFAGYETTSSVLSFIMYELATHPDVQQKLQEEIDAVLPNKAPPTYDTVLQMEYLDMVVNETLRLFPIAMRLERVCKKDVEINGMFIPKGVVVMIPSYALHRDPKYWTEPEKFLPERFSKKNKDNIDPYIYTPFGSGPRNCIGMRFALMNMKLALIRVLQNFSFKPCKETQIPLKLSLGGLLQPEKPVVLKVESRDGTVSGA
Method: as §2, §1, §3

OATP1A2 = target: T5, OATP1A2 (Homo sapiens, UniProt P46721); assay: cell-based; details: A431-OATP1A2; sulforhodamine 101 0.5 µM; pH 7.4; 10 min; read-out: IC50, OATP1A2 inhibition
T5 construct: expressed in transfected cells; host or cells: A431
T5 sequence (P46721 whole entry): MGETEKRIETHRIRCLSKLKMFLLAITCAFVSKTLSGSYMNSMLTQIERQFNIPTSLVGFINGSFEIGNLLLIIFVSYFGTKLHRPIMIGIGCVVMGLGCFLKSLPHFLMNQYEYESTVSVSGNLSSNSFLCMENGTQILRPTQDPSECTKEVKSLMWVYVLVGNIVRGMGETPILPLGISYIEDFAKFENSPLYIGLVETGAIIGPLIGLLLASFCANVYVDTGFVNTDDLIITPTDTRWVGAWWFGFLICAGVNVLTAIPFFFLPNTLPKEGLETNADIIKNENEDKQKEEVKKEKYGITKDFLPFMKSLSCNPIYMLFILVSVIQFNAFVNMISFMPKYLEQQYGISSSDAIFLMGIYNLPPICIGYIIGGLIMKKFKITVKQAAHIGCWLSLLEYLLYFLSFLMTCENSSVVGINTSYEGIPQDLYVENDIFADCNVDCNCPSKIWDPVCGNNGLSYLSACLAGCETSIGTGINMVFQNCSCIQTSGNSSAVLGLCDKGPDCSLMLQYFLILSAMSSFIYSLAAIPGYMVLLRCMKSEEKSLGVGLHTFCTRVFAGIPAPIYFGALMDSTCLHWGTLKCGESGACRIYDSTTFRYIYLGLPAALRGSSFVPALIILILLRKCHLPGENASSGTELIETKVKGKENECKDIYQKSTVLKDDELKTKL
Method: (§4) A431 cell lines overexpressing human OATPs (1A2, 1B1, 1B3, or 2B1) and their mock transfected controls were generated earlier. A431 cells expressed no or negligible OATPs compared to the overexpressing cell lines. Cells were cultured in Dulbecco’s modified Eagle medium (DMEM, Thermo Fisher Scientific, Waltham, MA, USA) with 10% fetal bovine serum, 2 mM L-glutamine, 100 U/mL penicillin, and 100 µg/mL streptomycin at 37 °C, with 5% CO2. OATP expression was regularly monitored (based on the transport activity of transfected cells), and the cells were used up to 20 passages.
(§5) Interaction between OATPs (1A2, 1B1, 1B3, and 2B1) and AOH was measured in an indirect transport assay with pyranine or sulforhodamine 101 as fluorescent probes. A431 cell overexpressing OATPs or their mock transfected controls were seeded on 96-well plates one day prior to the measurements in 200 µL DMEM in 8 × 10^4 cells/well density. Before the measurement, the medium was removed, and cells were washed three times with 200 µL PBS (phosphate-buffered saline, pH 7.2) at room temperature. Then the cells were preincubated with 50 µL uptake buffer (125 mM NaCl, 4.8 mM KCl, 1.2 mM CaCl2, 1.2 mM KH2PO4, […], 25 mM MES, and 5.6 mM glucose, with the pH adjusted using 1 M HEPES and 10 N NaOH, pH 5.5 for OATP1B1/1B3/2B1 and pH 7.4 for OATP1A2) with or without increasing concentrations (0.00, 0.16, 0.31, 0.63, 1.25, 2.5, 5.0, 10, and 20 μM) of AOH for 5 min. The reaction was started when the probe was added in 10 µM (pyranine; OATP1B1), 20 µM (pyranine; OATP2B1 and OATP1B3), or 0.5 µM (sulforhodamine 101; OATP1A2) final concentrations. […] Fluorescence was measured in an Enspire plate reader (Perkin Elmer, Waltham, MA, USA) in Ex/Em wavelengths 460/510 nm for pyranine and 586/605 nm for sulforhodamine 101. Bottom reading was applied with two horizontal (X) and two vertical (Y) points, measurement height was 3 mm with 200 flashes. IC50 values were calculated by sigmoidal fitting (Hill1), using the Origin (version 2018, OriginLab Corporation, Northampton, MA, USA) software.

OATP1B3 = target: T6, OATP1B3 (Homo sapiens, UniProt Q9NPD5); assay: cell-based; details: A431-OATP1B3; pyranine 20 µM; pH 5.5; 30 min; read-out: IC50, OATP1B3 inhibition
T6 construct: expressed in transfected cells; host or cells: A431
T6 sequence (Q9NPD5 whole entry): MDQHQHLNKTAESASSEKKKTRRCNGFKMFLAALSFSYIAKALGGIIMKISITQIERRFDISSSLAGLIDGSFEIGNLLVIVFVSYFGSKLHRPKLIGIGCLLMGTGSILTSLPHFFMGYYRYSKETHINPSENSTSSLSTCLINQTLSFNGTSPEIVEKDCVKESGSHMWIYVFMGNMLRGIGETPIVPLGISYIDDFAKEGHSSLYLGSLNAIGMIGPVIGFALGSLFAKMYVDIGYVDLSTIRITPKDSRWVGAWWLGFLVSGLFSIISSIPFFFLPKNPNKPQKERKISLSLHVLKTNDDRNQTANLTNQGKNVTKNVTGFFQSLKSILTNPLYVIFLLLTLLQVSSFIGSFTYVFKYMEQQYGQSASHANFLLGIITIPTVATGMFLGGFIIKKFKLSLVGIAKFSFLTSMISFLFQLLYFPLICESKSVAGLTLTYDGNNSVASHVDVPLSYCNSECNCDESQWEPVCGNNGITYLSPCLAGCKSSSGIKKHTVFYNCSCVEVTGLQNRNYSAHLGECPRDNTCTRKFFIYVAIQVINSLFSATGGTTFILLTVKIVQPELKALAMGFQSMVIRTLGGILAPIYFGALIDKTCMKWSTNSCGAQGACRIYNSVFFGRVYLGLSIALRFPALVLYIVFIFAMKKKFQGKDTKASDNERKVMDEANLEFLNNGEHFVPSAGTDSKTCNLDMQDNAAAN
Method: as §4, §5

OATP2B1 = target: T7, OATP2B1 (Homo sapiens, UniProt O94956); assay: cell-based; details: A431-OATP2B1; pyranine 20 µM; pH 5.5; 15 min; read-out: IC50, OATP2B1 inhibition
T7 construct: expressed in transfected cells; host or cells: A431
T7 sequence (O94956 whole entry): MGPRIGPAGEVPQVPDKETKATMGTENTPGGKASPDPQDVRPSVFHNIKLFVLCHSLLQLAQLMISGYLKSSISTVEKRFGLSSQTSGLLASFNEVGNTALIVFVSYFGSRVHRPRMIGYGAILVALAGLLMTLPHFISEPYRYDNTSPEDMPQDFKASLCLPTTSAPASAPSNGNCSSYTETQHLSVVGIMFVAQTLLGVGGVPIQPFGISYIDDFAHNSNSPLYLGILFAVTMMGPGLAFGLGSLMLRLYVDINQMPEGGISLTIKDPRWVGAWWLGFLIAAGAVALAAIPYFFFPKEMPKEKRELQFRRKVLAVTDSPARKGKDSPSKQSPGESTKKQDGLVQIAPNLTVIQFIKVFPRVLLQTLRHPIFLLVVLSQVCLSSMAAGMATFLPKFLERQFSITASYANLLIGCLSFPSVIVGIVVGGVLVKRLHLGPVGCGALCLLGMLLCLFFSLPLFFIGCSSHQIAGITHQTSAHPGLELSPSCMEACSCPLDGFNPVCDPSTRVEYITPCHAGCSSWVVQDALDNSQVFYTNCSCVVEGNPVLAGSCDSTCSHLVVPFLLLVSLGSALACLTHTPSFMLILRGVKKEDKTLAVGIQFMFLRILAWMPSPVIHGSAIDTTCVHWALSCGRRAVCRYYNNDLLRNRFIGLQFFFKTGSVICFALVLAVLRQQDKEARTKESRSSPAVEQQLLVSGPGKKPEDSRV
Method: as §4, §5

OATP1B1 = OATP1B1 (Homo sapiens, UniProt Q9Y6L6); assay: cell-based; design: expressed in transfected cells; host or cells: A431; details: A431-OATP1B1; pyranine 10 µM; pH 5.5; 15 min; read-out: IC50, OATP1B1 inhibition
OATP1B1, sequence (Q9Y6L6 whole entry): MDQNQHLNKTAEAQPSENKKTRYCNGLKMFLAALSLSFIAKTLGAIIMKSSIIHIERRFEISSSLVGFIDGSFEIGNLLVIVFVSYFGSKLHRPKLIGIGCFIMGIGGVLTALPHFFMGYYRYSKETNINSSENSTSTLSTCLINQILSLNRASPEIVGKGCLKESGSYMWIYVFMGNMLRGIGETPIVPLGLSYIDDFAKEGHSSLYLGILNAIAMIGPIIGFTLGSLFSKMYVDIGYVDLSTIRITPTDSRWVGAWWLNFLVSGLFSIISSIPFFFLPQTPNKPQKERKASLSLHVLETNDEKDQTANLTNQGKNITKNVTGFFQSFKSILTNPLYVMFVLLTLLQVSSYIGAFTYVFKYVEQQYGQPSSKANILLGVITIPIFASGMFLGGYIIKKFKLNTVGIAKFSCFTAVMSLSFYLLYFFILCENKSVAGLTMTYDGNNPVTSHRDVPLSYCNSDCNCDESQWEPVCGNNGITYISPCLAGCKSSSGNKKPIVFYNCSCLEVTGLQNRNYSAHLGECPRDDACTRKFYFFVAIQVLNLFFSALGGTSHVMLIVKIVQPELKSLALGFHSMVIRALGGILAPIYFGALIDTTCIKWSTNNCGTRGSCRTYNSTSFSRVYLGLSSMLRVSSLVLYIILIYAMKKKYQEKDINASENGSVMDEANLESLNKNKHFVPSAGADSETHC
Method: as §4
Interaction between OATPs (1A2, 1B1, 1B3, and 2B1) and AOH was measured in an indirect transport assay with pyranine or sulforhodamine 101 as fluorescent probes. A431 cell overexpressing OATPs or their mock transfected controls were seeded on 96-well plates one day prior to the measurements in 200 µL DMEM in 8 × 10^4 cells/well density. […] Fluorescence was measured in an Enspire plate reader (Perkin Elmer, Waltham, MA, USA) in Ex/Em wavelengths 460/510 nm for pyranine and 586/605 nm for sulforhodamine 101. Bottom reading was applied with two horizontal (X) and two vertical (Y) points, measurement height was 3 mm with 200 flashes. IC50 values were calculated by sigmoidal fitting (Hill1), using the Origin (version 2018, OriginLab Corporation, Northampton, MA, USA) software.

T1 sequence (P05177 whole entry): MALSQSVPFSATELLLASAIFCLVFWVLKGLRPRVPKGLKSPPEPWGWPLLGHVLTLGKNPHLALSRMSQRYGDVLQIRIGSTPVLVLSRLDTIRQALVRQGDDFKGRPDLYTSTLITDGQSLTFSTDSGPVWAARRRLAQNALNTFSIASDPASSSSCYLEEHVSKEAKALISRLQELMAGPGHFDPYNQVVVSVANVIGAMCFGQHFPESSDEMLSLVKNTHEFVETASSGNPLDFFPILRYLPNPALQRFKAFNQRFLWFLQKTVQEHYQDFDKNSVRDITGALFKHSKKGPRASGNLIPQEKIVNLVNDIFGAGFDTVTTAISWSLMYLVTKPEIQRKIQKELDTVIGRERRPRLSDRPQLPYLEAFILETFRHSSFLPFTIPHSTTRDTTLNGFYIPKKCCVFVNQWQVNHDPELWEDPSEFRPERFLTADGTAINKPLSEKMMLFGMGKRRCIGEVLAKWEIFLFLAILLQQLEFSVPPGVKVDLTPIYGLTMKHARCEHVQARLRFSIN

## Cc1cc(O)cc2oc(=O)c3c(O)cc(O)cc3c12 [AOH, Alternariol]
CYP1A2; 0.05 μM AOH, p < 0.01
  CYP1A2 inhibition at 0.05 μM: statistically significant
CYP1A2; 10 μM AOH
  CYP1A2 inhibition at 10 μM: close to complete
CYP1A2; fluorometric kit, AOH 0-25 μM, read-out: IC50, CYP1A2 inhibition
  pIC50: 6.82
CYP2C19; 5 μM AOH, p < 0.01
  CYP2C19 inhibition at 5 μM: significantly (p < 0.01) inhibited
CYP2C19; 50 μM AOH (highest concentration)
  decrease in 4-hydroxymephenytoin production (CYP2C19): 55%
CYP2D6
  effect on CYP2D6-catalyzed dextromethorphan demethylation: not affected
CYP3A4
  CYP3A4 inhibition (decrease in metabolite formation): approximately 40%
OATP1A2
  pIC50: 5.27
OATP1B3
  pIC50: 5.39
OATP2B1
  pIC50: 5.72
OATP1B1
  pIC50: 5.70
